Source: the NIST ThermoML archive (doi:10.1021/je400659p)
± gives the expanded uncertainty stated by the source.

Legend:
[1] = refractive index (Na D-line) (dimensionless); xn = mol fraction of the nth substance listed; details: 101 kPa, Liquid, Standard Abbe refractometry
[2] = xn = mol fraction of the nth substance listed; details: 101 kPa, Liquid, Vibrating tube method

CCn1cc[n+](C)c1.F[B-](F)(F)F [1-ethyl-3-methylimidazolium tetrafluoroborate] + OCCO
Details	mass density, [2] [kg/m3]	refractive index, [1]
293.15 K, x1 = 0.1249	1161.63 ± 0.26	–
293.15 K, x1 = 0.2084	1184.1 ± 0.3	–
293.15 K, x1 = 0.3046	1205.75 ± 0.38	–
293.15 K, x1 = 0.4124	1224.93 ± 0.5	–
293.15 K, x1 = 0.4763	1234.72 ± 0.57	–
293.15 K, x1 = 0.5565	1245.69 ± 0.68	–
293.15 K, x1 = 0.717	1264.34 ± 0.93	–
293.15 K, x1 = 0.7826	1271.14 ± 1	–
293.15 K, x1 = 0.901	1282.2 ± 1.3	–
293.15 K, x1 = 1	1290.63 ± 1.5	–
298.15 K, x1 = 0.1249	1157.85 ± 0.26	1.4239 ± 0.0004
298.15 K, x1 = 0.2084	1180.23 ± 0.3	1.4206 ± 0.0004
298.15 K, x1 = 0.3046	1201.79 ± 0.38	1.4176 ± 0.0004
298.15 K, x1 = 0.4124	1220.94 ± 0.49	1.4151 ± 0.0004
298.15 K, x1 = 0.4763	1230.74 ± 0.57	1.414 ± 0.0004
298.15 K, x1 = 0.5565	1241.72 ± 0.67	1.413 ± 0.0004
298.15 K, x1 = 0.717	1260.43 ± 0.92	1.412 ± 0.0005
298.15 K, x1 = 0.7826	1267.25 ± 1	1.4118 ± 0.0005
298.15 K, x1 = 0.901	1278.35 ± 1.3	1.4115 ± 0.0005
298.15 K, x1 = 1	1286.82 ± 1.5	1.4111 ± 0.0005
303.15 K, x1 = 0.1249	1154.08 ± 0.26	1.4224 ± 0.0004
303.15 K, x1 = 0.2084	1176.36 ± 0.3	1.4192 ± 0.0004
303.15 K, x1 = 0.3046	1197.84 ± 0.38	1.4163 ± 0.0004
303.15 K, x1 = 0.4124	1216.96 ± 0.49	1.4138 ± 0.0004
303.15 K, x1 = 0.4763	1226.77 ± 0.56	1.4127 ± 0.0004
303.15 K, x1 = 0.5565	1237.77 ± 0.67	1.4117 ± 0.0004
303.15 K, x1 = 0.717	1256.53 ± 0.92	1.4105 ± 0.0005
303.15 K, x1 = 0.7826	1263.37 ± 1	1.4103 ± 0.0005
303.15 K, x1 = 0.901	1274.51 ± 1.3	1.4101 ± 0.0005
303.15 K, x1 = 1	1283.02 ± 1.5	1.41 ± 0.0005
313.15 K, x1 = 0.1249	1146.54 ± 0.26	1.4199 ± 0.0004
313.15 K, x1 = 0.2084	1168.63 ± 0.29	1.4167 ± 0.0004
313.15 K, x1 = 0.3046	1189.98 ± 0.37	1.4136 ± 0.0004
313.15 K, x1 = 0.4124	1209.07 ± 0.48	1.411 ± 0.0004
313.15 K, x1 = 0.4763	1218.9 ± 0.55	1.4099 ± 0.0004
313.15 K, x1 = 0.5565	1229.92 ± 0.66	1.4089 ± 0.0004
313.15 K, x1 = 0.717	1248.81 ± 0.9	1.4079 ± 0.0005
313.15 K, x1 = 0.7826	1255.69 ± 1	1.4077 ± 0.0005
313.15 K, x1 = 0.901	1266.9 ± 1.2	1.4076 ± 0.0005
313.15 K, x1 = 1	1275.45 ± 1.4	1.4073 ± 0.0005
323.15 K, x1 = 0.1249	1138.98 ± 0.25	1.4174 ± 0.0004
323.15 K, x1 = 0.2084	1160.91 ± 0.29	1.4142 ± 0.0004
323.15 K, x1 = 0.3046	1182.17 ± 0.36	1.4111 ± 0.0004
323.15 K, x1 = 0.4124	1201.24 ± 0.47	1.4085 ± 0.0004
323.15 K, x1 = 0.4763	1211.09 ± 0.55	1.4074 ± 0.0004
323.15 K, x1 = 0.5565	1222.17 ± 0.65	1.4064 ± 0.0004
323.15 K, x1 = 0.717	1241.18 ± 0.89	1.4054 ± 0.0005
323.15 K, x1 = 0.7826	1248.09 ± 1	1.4054 ± 0.0005
323.15 K, x1 = 0.901	1259.36 ± 1.2	1.4053 ± 0.0005
323.15 K, x1 = 1	1267.97 ± 1.4	1.4051 ± 0.0005
333.15 K, x1 = 0.1249	1131.39 ± 0.25	–
333.15 K, x1 = 0.2084	1153.19 ± 0.28	–
333.15 K, x1 = 0.3046	1174.39 ± 0.36	–
333.15 K, x1 = 0.4124	1193.47 ± 0.46	–
333.15 K, x1 = 0.4763	1203.36 ± 0.54	–
333.15 K, x1 = 0.5565	1214.49 ± 0.64	–
333.15 K, x1 = 0.717	1233.6 ± 0.88	–
333.15 K, x1 = 0.7826	1240.56 ± 0.99	–
333.15 K, x1 = 0.901	1251.89 ± 1.2	–
333.15 K, x1 = 1	1260.55 ± 1.4	–
343.15 K, x1 = 0.1249	1123.78 ± 0.25	–
343.15 K, x1 = 0.2084	1145.48 ± 0.28	–
343.15 K, x1 = 0.3046	1166.65 ± 0.35	–
343.15 K, x1 = 0.4124	1185.76 ± 0.46	–
343.15 K, x1 = 0.4763	1195.68 ± 0.53	–
343.15 K, x1 = 0.5565	1206.88 ± 0.63	–
343.15 K, x1 = 0.717	1226.11 ± 0.87	–
343.15 K, x1 = 0.7826	1233.11 ± 0.98	–
343.15 K, x1 = 0.901	1244.49 ± 1.2	–
343.15 K, x1 = 1	1253.18 ± 1.4	–
353.15 K, x1 = 0.1249	1116.15 ± 0.24	–
353.15 K, x1 = 0.2084	1137.77 ± 0.27	–
353.15 K, x1 = 0.3046	1158.94 ± 0.35	–
353.15 K, x1 = 0.4124	1178.1 ± 0.45	–
353.15 K, x1 = 0.4763	1188.07 ± 0.52	–
353.15 K, x1 = 0.5565	1199.33 ± 0.62	–
353.15 K, x1 = 0.717	1218.68 ± 0.86	–
353.15 K, x1 = 0.7826	1225.73 ± 0.96	–
353.15 K, x1 = 0.901	1237.16 ± 1.2	–
353.15 K, x1 = 1	1245.87 ± 1.4	–
